Tests used:
Type in all cases: in vivo
[1] = system: field poppy (Papaver rhoeas); experiment: Test D pre-/postemergence: field poppy
Excerpt: (§1) Seeds of plant species selected from bluegrass (annual bluegrass, Poa annua), blackgrass (Alopecurus myosuroides), canarygrass (Phalaris minor), chickweed (common chickweed, Stellaria media), galium (catchweed bedstraw, Galium aparine), bromegrass, downy (downy bromegrass, Bromus tectorum), field poppy (Papaver rhoeas), field violet (Viola arvensis), foxtail, green (green foxtail, Setaria viridis), deadnettle (henbit deadnettle, Lamium amplexicaule), ryegrass, Italian (Italian ryegrass, Lolium multiflorum), kochia (Kochia scoparia), lambsquarters (Chenopodium album), oilseed rape (Brassica napus), pigweed (Amaranthus retroflexus), Russian thistle (Salsola iberica), chamomile (scentless chamomile, Matricaria inodora), speedwell (bird's-eye speedwell, Veronica persica), barley, spring (spring barley, Hordeum vulgare), wheat, spring (spring wheat, Triticum aestivum), buckwheat, wild (wild buckwheat, Polygonum convolvulus), mustard, wild (wild mustard, Sinapis arvensis), oat, wild (wild oat, Avena fatua), radish, wild (wild radish, Raphanus raphanistrum), windgrass (Apera spica-venti), barley, winter (winter barley, Hordeum vulgare), and wheat, winter (winter wheat, Triticum aestivum) were planted into a silt loam soil and treated preemergence with test chemicals formulated in a non-phytotoxic solvent mixture which included a surfactant. At the same time, these same crop and weed species were planted in pots containing the planting medium comprising spaghnum peat moss, vermiculite, wetting agent and starter nutrients and treated with postemergence applications of the test chemicals formulated in the same manner. Plants ranged in height from 2 to 18 cm (1- to 4-leaf stage).
(§2) Treated plants and controls were maintained in a controlled growth environment for 14 to 21 days after which time all species were compared to controls and visually evaluated. Plant response ratings, summarized in Table D, are based on a scale of 0 to 100 where 0 is no effect and 100 is complete control. A dash (-) response means no test result.

[2] = system: buckwheat, wild (wild buckwheat, Polygonum convolvulus); experiment: Test D pre-/postemergence: buckwheat, wild
Excerpt: as §1, §2

[3] = system: waterhemp (common waterhemp, Amaranthus rudis); experiment: Test F pre-/postemergence: waterhemp
Excerpt: Seeds of plant species selected from corn (Zea mays), soybean (Glycine max), velvetleaf (Abutilon theophrasti), lambsquarters (Chenopodium album), poinsettia, wild (wild poinsettia, Euphorbia heterophylla), pigweed, palmer (palmer pigweed, Amaranthus palmeri), waterhemp (common waterhemp, Amaranthus rudis), surinam grass (Brachiaria decumbens), crabgrass, Brazil (Brazilian crabgrass, Digitaria horizontalis), panicum, fall (fall panicum Panicum dichotomiflorum), crabgrass, large (large crabgrass, Digitaria sanguinalis), foxtail, giant (giant foxtail, Setaria faberii), foxtail, green (green foxtail Setaria viridis), goosegrass (Eleusine indica), ragweed (common ragweed, Ambrosia elatior), barnyardgrass (Echinochloa crus-galli), sandbur (southern sandbur, Cenchrus echinatus), arrowleaf sida (Sida rhombifolia), ryegrass, Italian (Italian ryegrass, Lolium multiflorum), dayflower, VA (Virginia (VA) dayflower, Commelina virginica), field bindweed (Convolvulus arvensis), cocklebur (common cocklebur, Xanthium strumarium), morningglory (Ipomoea coccinea), nightshade (eastern black nightshade, Solanum ptycanthum), kochia (Kochia scoparia), nutsedge, yellow (yellow nutsedge, Cyperus esculentus), johnsongrass (Sorghum halepense), smartweed (ladysthumb smartweed, Polygonum persicaria), and beggarticks (hairy beggarticks, Bidens pilosa), were planted into a silt loam soil and treated preemergence with test chemicals formulated in a non-phytotoxic solvent mixture which included a surfactant. At the same time, plants selected from these crop and weed species and also pigweed (Amaranthus retroflexus), waterhemp_RES1 (ALS/Triazine resistant common waterhemp, Amaranthus rudis) and waterhemp_RES2 (ALS/HPPD resistant common waterhemp, Amaranthus rudis) were planted in pots containing a planting medium comprising spaghnum peat moss, vermiculite, wetting agent and starter nutrients treated with postemergence applications of some of the test chemicals formulated in the same manner. Plants ranged in height from 2 to 18 cm for postemergence treatments (1- to 4-leaf stage).
as §2, with “greenhouse” for “controlled growth environment”, “days,” for “days”, “E,” for “D,”

[4] = Postemergence, 31 g ai/ha, scale 0 to 100 (0 no effect, 100 complete control)
[5] = Postemergence, 62 g ai/ha, scale 0 to 100 (0 no effect, 100 complete control)
[6] = Postemergence, 125 g ai/ha, scale 0 to 100, 0 no effect, 100 complete control
[7] = Postemergence, 250 g ai/ha, scale 0 to 100 (0 no effect, 100 complete control)
[8] = Postemergence, 16 g ai/ha, scale 0 to 100
[9] = Preemergence, 31 g ai/ha, scale 0 to 100, 0 no effect, 100 complete control
[10] = Preemergence, 62 g ai/ha, scale 0 to 100
[11] = Preemergence, 125 g ai/ha, scale 0 to 100
[12] = Preemergence, 250 g ai/ha, scale 0 to 100
[13] = Preemergence, 16 g ai/ha, scale 0 to 100, 0 no effect, 100 complete control
[14] = Postemergence, 250 g ai/ha, scale 0 to 100
[15] = Postemergence, 31 g ai/ha, scale 0 to 100
[16] = Postemergence, 125 g ai/ha, scale 0 to 100

Structure (SMILES) | Plant response rating: Field Poppy [1, 4] | Plant response rating: Field Poppy [1, 5] | Plant response rating: Field Poppy [1, 6] | Plant response rating, Field Poppy [1, 8] | Plant response rating: Buckwheat, Wild [2, 4] | Plant response rating: Buckwheat, Wild [2, 5] | Plant response rating: Buckwheat, Wild [2, 6] | Plant response rating, Buckwheat, Wild [2, 8] | Plant response rating, Buckwheat, Wild [2, 9] | Plant response rating, Buckwheat, Wild [2, 10] | Plant response rating, Buckwheat, Wild [2, 11] | Plant response rating, Waterhemp [3, 13] | Plant response rating, Waterhemp [3, 9] | Plant response rating, Waterhemp [3, 11] | Plant response rating, Waterhemp [3, 12] | Plant response rating, Field Poppy [1, 13] | Plant response rating, Field Poppy [1, 9] | Plant response rating, Field Poppy [1, 10] | Plant response rating, Field Poppy [1, 11] | Plant response rating, Buckwheat, Wild [2, 13] | other results
Cc1nn(-c2ccc(C(F)(F)F)cn2)nc1Cc1cccc(C(F)(F)F)c1 [Compound 106] | 100 | 100 | 100 | 100 | 0 | 10 | 10 | 0 | 50 | 100 | 100 | – | – | – | – | – | – | – | – | – | Plant response rating: Field Poppy [1, 7]: 100; Plant response rating: Buckwheat, Wild [2, 7]: 100; Plant response rating, Buckwheat, Wild [2, 12]: 100
COc1nn(-c2ccc(C(F)(F)F)cc2)nc1Cc1ccnc(C(F)F)c1 [Compound 138] | 90 | 90 | 100 | 80 | 40 | 50 | 80 | 40 | – | – | – | – | – | – | – | – | – | – | – | – | Plant response rating: Field Poppy [1, 7]: 100; Plant response rating: Buckwheat, Wild [2, 7]: 80
COc1nn(-c2cccc(F)c2)nc1Cc1ccnc(C(F)(F)F)c1 [Compound 139] | – | – | – | – | – | – | – | – | – | – | – | 70 | 100 | 100 | 100 | – | – | – | – | – | –
Cc1nn(-c2ccc(F)cc2F)nc1Oc1ccnc(C(F)(F)F)c1 [Compound 146] | – | – | – | – | – | – | – | – | – | – | – | 25 | 75 | 100 | 100 | – | – | – | – | – | –
Cc1nn(-c2ccc(C(F)(F)F)c(F)c2)nc1Oc1ccnc(C(F)(F)F)c1 [Compound 148] | 100 | 95 | 100 | 90 | 60 | 75 | 70 | 60 | 30 | 65 | 50 | 30 | 90 | 100 | 100 | 10 | 70 | 100 | 95 | 20 | –
CCc1nn(-c2ccc(F)cc2)nc1Cc1ccnc(C(F)(F)F)c1 [Compound 154] | – | – | – | – | – | – | – | – | – | – | – | 50 | 60 | 100 | 100 | – | – | – | – | – | –
CCc1nn(-c2ccc(C(F)(F)F)cc2)nc1Cc1ccnc(C(F)(F)F)c1 [Compound 155] | 95 | 100 | 100 | 80 | 70 | 70 | 75 | 75 | 25 | 50 | 70 | – | – | 100 | 100 | 80 | 95 | 95 | 100 | 10 | –
Cc1nn(-c2ccc(F)c(C(F)(F)F)c2)nc1Cc1ccnc(C(F)(F)F)c1 [Compound 156] | 100 | 100 | 100 | 85 | 75 | 80 | 85 | 70 | 50 | 65 | 100 | – | – | – | – | 85 | 100 | 95 | 100 | 0 | –
CCc1nn(-c2ccc(C(F)(F)F)cc2)nc1Oc1ccnc(C(F)(F)F)c1 [Compound 169] | – | – | – | – | – | – | – | – | – | – | – | 60 | 80 | 100 | 100 | – | – | – | – | – | Plant response rating, Waterhemp [3, 14]: 100; Plant response rating, Waterhemp [3, 8]: 75; Plant response rating, Waterhemp [3, 15]: 90; Plant response rating, Waterhemp ([3]; Postemergence, 62 g ai/ha, scale 0 to 100): 90; Plant response rating, Waterhemp [3, 16]: 100
CCc1nn(-c2ccc(F)c(F)c2)nc1Oc1ccnc(C(F)(F)F)c1 [Compound 171] | – | – | – | – | – | – | – | – | – | – | – | 0 | 95 | 100 | 100 | – | – | – | – | – | –
CCCc1nn(-c2ccc(F)c(F)c2)nc1Oc1ccnc(C(F)(F)F)c1 [Compound 172] | – | – | – | – | – | – | – | – | – | – | – | – | 98 | 100 | 100 | – | – | – | – | – | Plant response rating, Waterhemp [3, 14]: 100; Plant response rating, Waterhemp [3, 15]: 95; Plant response rating, Waterhemp [3, 16]: 100
CCOc1nn(-c2ccc(F)cc2)nc1Cc1ccnc(C(F)(F)F)c1 [Compound 196, 4-[[5-ethoxy-2-(4-fluorophenyl)-2H-1,2,3-triazol-4-yl]methyl]-2-(trifluoromethyl)pyridine] | 100 | 100 | 100 | 100 | 70 | 90 | 95 | 50 | 45 | 70 | 95 | 95 | 98 | 100 | – | 95 | 90 | 100 | 100 | 60 | Plant response rating, Waterhemp ([3]; Preemergence, 8 g ai/ha, scale 0 to 100, 0 no effect, 100 complete control): 50
